Several values for one entry are separate records, joined by “and”; a condition that tells them apart may be missing. Equal entries are not always repeated.
Legend:
Vaccinia = assay: ASTM E1052 Kill Time Screen test, antiviral activity; assay type: cell-based
[1] = system: Staphylococcus aureus, ATCC 6538; assay: EN 1276 quantitative suspension test, bactericidal activity; assay type: cell-based; settings: all tested contact times (5, 60 min) and concentrations (1.5%, 3%, 6%)
Description: The test was carried out according to EN 1276, 2019: Chemical disinfectants and antiseptics-Quantitative suspension test for the evaluation of bactericidal activity of chemical disinfectants and antiseptics used in food, industrial, domestic, and institutional areas-Test method and requirements. […] The growth media TSB (Tryptic Soy Broth) was separately inoculated with a culture loop of the microorganisms. The cultures were incubated at 37° C. for 24 hours. Bovine Serum Albumin with a final concentration of 3 g/L Polysorbate 80 with a concentration of 30 g/L The used method was Dilution-neutralization method. 1 mL of interfering substance was pipetted into a tube and 1 mL of the test suspension was added and mixed. […] The solution was incubated at 20° C. for 5 min. and 60 min. respectively. […] After 5 min. of neutralization time 100 μL of the mixture was added to a petri-dish containing TSA media. Another 100 μL was added to a tube containing 900 μL 0.9% NaCl and a serial dilution to 10^-5 was made. The mixtures added to the agar plates were evenly distributed with a Drigalski-spatula. The agar plates were incubated at 37° C. for 24 hours. After incubation, the number of surviving bacteria (CFU) was counted. The test was performed in 3 replicates.

[2] = system: Coniophora puteana. BAM Ebw. 15; assay: EN 113 test against wood destroying basidiomycetes; assay type: cell-based; settings: for Corrected mass loss / Mass loss: single blocks
Source text: (§1) EN 113, 2020: Durability of wood and wood-based products-Test method against wood destroying basidiomycetes. Assessment of biocidal efficacy of wood preservatives.
(§2) Assessment of the results shown in table XIV.: The protection provided for the wood by the test preservative at the given concentration is deemed to be adequate if: • a) the corrected mean loss is less than 3.0% (m/m) • b) not more than one specimen has suffered a loss in mass greater than 3.0% (m/m) but less than 5.0% (m/m)
(§3) The impregnation process was carried out on 24-03-2021 with the following conditions:
(§4) Pre-vacuum at 0.1 bar for 30 minutes.
(§5) Pressure of 13 bars for 60 minutes.
(§6) Scots pine sapwood (Pinus sylvestris L.) for brown rot fungi with an average density of 589 kg/m3.
(§7) 4 weeks according to EN 113 at 65% RH and 20° C. until stable mass was obtained.
(§8) Ionising radiation (2× 25 kGy).

[3] = system: Gloeophyllum trabeum. BAM Ebw. 109; assay: EN 113 test against wood destroying basidiomycetes; assay type: cell-based; settings: for Corrected mass loss / Mass loss: single blocks; for Corrected mass loss, Mean / Mass loss, Mean: mean of blocks
Source text: as §1, §2, §3, §4, §5, §6, §7, §8

Poria placenta. FPRL 280 = assay: EN 113 test against wood destroying basidiomycetes; assay type: cell-based; settings: for Corrected mass loss / Mass loss: single blocks
Source text: as §1, §2, §3, §4, §5, §6, §7, §8

[4] = system: Coriolus versicolor. CTB 863 A; assay: EN 113 test against wood destroying basidiomycetes; assay type: cell-based; settings: for Corrected mass loss, Mean / Mass loss, Mean: mean of blocks; for Corrected mass loss / Mass loss: single blocks
Description: EN 113, 2020: Durability of wood and wood-based products-Test method against wood destroying basidiomycetes. Assessment of biocidal efficacy of wood preservatives. […] The impregnation process was carried out on 24-03-2021 with the following conditions: Pre-vacuum at 0.1 bar for 30 minutes. Pressure of 13 bars for 60 minutes. Beech (Fagus sylvatica L.) for white rot fungi (Coriolus versicolor) with an average density 725 kg/m3. 4 weeks according to EN 113 at 65% RH and 20° C. until stable mass was obtained. Ionising radiation (2× 25 kGy).

[5] = 10% N-BDA in water; cited from earlier work
[6] = concentrations of 0.36%, 0.51%, 0.72%, 1.01% and 1.43%

Compound: CCCCN(CCO)CCO [NBDA, N-butyldiethanolamine]
- Mean log reduction after 60 seconds (Vaccinia; 1.0% NBDA): 0.17
- Mean log reduction after 60 seconds (Vaccinia; 5.0% NBDA): 0.09
- log changes of CFU [1]: lower than 5 log units
- Toxic value, Retention of product ([2]; Scots pine sapwood): >9.86 kg/m^3
- Toxic value, Solution conc. ([2]; Scots pine sapwood): >1.43 % w/w
- Corrected mass loss, Mean ([2]; solution conc. 0.36% w/w): 36.6%
- Mass loss, Mean ([2]; solution conc. 0.36% w/w): 36.8%
- Corrected mass loss ([2]; solution conc. 0.36% w/w): 39.2% and 27.2% and 47.6% and 32.3%
- Mass loss ([2]; solution conc. 0.36% w/w): 39.4% and 27.4% and 47.8% and 32.5%
- Corrected mass loss, Mean ([2]; solution conc. 0.51% w/w): 38.3%
- Mass loss, Mean ([2]; solution conc. 0.51% w/w): 38.5%
- Corrected mass loss ([2]; solution conc. 0.51% w/w): 42.4% and 39.5% and 34.0% and 37.2%
- Mass loss ([2]; solution conc. 0.51% w/w): 42.6% and 39.7% and 34.2% and 37.4%
- Corrected mass loss, Mean ([2]; solution conc. 0.72% w/w): 37.4%
- Mass loss, Mean ([2]; solution conc. 0.72% w/w): 37.1%
- Corrected mass loss ([2]; solution conc. 0.72% w/w): 29.8% and 43.3% and 36.9% and 39.7%
- Mass loss ([2]; solution conc. 0.72% w/w): 29.5% and 43.0% and 36.6% and 39.3%
- Corrected mass loss, Mean ([2]; solution conc. 1.01% w/w): 40.4%
- Mass loss, Mean ([2]; solution conc. 1.01% w/w): 39.9%
- Corrected mass loss ([2]; solution conc. 1.01% w/w): 37.2% and 41.8% and 45.1% and 37.3%
- Mass loss ([2]; solution conc. 1.01% w/w): 36.7% and 41.4% and 44.6% and 36.8%
- Corrected mass loss, Mean ([2]; solution conc. 1.43% w/w): 36.1%
- Mass loss, Mean ([2]; solution conc. 1.43% w/w): 35.0%
- Corrected mass loss ([2]; solution conc. 1.43% w/w): 31.1% and 37.2% and 38.4% and 37.8%
- Mass loss ([2]; solution conc. 1.43% w/w): 30.0% and 36.2% and 37.3% and 36.7%
- Toxic value, Retention of product ([3]; Scots pine sapwood): 6.85-10.03 kg/m^3
- Toxic value, Solution conc. ([3]; Scots pine sapwood): 1.01-1.43 % w/w
- fungicide for preventing wood destruction [3, 6]: effective as a fungicide
- Corrected mass loss ([3]; solution conc. 0.36% w/w): 44.8% and 30.6% and 32.5% and 33.8%
- Mass loss ([3]; solution conc. 0.36% w/w): 45.0% and 30.8% and 32.7% and 34.0%
- Corrected mass loss, Mean ([3]; solution conc. 0.36 % w/w): 35.4%
- Mass loss, Mean ([3]; solution conc. 0.36 % w/w): 35.6%
- Corrected mass loss ([3]; solution conc. 0.51% w/w): 34.8% and 29.4% and 36.4% and 31.1%
- Mass loss ([3]; solution conc. 0.51% w/w): 35.0% and 29.6% and 36.6% and 31.3%
- Corrected mass loss, Mean ([3]; solution conc. 0.51 % w/w): 32.9%
- Mass loss, Mean ([3]; solution conc. 0.51 % w/w): 33.1%
- Corrected mass loss ([3]; solution conc. 0.72% w/w): 30.9% and 33.1% and 34.2% and 26.5%
- Mass loss ([3]; solution conc. 0.72% w/w): 30.6% and 32.7% and 33.8% and 26.1%
- Corrected mass loss, Mean ([3]; solution conc. 0.72 % w/w): 31.2%
- Mass loss, Mean ([3]; solution conc. 0.72 % w/w): 30.8%
- Corrected mass loss, Mean ([3]; solution conc. 1.01 % w/w): 11.4%
- Mass loss, Mean ([3]; solution conc. 1.01 % w/w): 11.0%
- Corrected mass loss ([3]; solution conc. 1.43% w/w): 0.7% and 0.3% and 2.0%
- Mass loss ([3]; solution conc. 1.43% w/w): −0.4% and −0.8% and 1.0% and 0.9%
- Corrected mass loss, Mean ([3]; solution conc. 1.43 % w/w): 1.3%
- Mass loss, Mean ([3]; solution conc. 1.43 % w/w): 0.2%
- Toxic value, Retention of product (Poria placenta. FPRL 280; Scots pine sapwood): 4.87-7.02 kg/m^3
- Toxic value, Solution conc. (Poria placenta. FPRL 280; Scots pine sapwood): 0.72-1.01 % w/w
- fungicide for preventing wood destruction (Poria placenta. FPRL 280; [6]): effective as a fungicide
- Corrected mass loss, Mean (Poria placenta. FPRL 280; solution conc. 0.36% w/w): 14.2%
- Mass loss, Mean (Poria placenta. FPRL 280; solution conc. 0.36% w/w): 14.4%
- Corrected mass loss (Poria placenta. FPRL 280; solution conc. 0.36% w/w): 14.0% and 19.2% and 11.4% and 12.3%
- Mass loss (Poria placenta. FPRL 280; solution conc. 0.36% w/w): 14.2% and 19.4% and 11.6% and 12.5%
- Corrected mass loss, Mean (Poria placenta. FPRL 280; solution conc. 0.51% w/w): 14.6%
- Mass loss, Mean (Poria placenta. FPRL 280; solution conc. 0.51% w/w): 14.8%
- Corrected mass loss (Poria placenta. FPRL 280; solution conc. 0.51% w/w): 14.0% and 17.1% and 14.2% and 13.3%
- Mass loss (Poria placenta. FPRL 280; solution conc. 0.51% w/w): 14.2% and 17.3% and 14.4% and 13.5%
- Corrected mass loss, Mean (Poria placenta. FPRL 280; solution conc. 0.72% w/w): 8.2%
- Mass loss, Mean (Poria placenta. FPRL 280; solution conc. 0.72% w/w): 7.8%
- Corrected mass loss (Poria placenta. FPRL 280; solution conc. 0.72% w/w): 9.2% and 9.0% and 6.3% and 8.2%
- Mass loss (Poria placenta. FPRL 280; solution conc. 0.72% w/w): 8.9% and 8.7% and 5.9% and 7.9%
- Corrected mass loss, Mean (Poria placenta. FPRL 280; solution conc. 1.01% w/w): 1.4%
- Mass loss, Mean (Poria placenta. FPRL 280; solution conc. 1.01% w/w): 1.0%
- Corrected mass loss (Poria placenta. FPRL 280; solution conc. 1.01% w/w): 2.5% and 0.1% and 1.3% and 1.9%
- Mass loss (Poria placenta. FPRL 280; solution conc. 1.01% w/w): 2.0% and −0.3% and 0.8% and 1.4%
- Corrected mass loss, Mean (Poria placenta. FPRL 280; solution conc. 1.43% w/w): 1.5%
- Mass loss, Mean (Poria placenta. FPRL 280; solution conc. 1.43% w/w): 0.4%
- Corrected mass loss (Poria placenta. FPRL 280; solution conc. 1.43% w/w): 0.5% and 4.1% and 0.7% and 0.6%
- Mass loss (Poria placenta. FPRL 280; solution conc. 1.43% w/w): −0.6% and 3.0% and −0.4% and −0.5%
- Toxic value, Retention of product ([4]; Beech): >15.40 kg/m^3
- Toxic value, Solution conc. ([4]; Beech): >2.20 % w/w
- Corrected mass loss, Mean ([4]; solution conc. 0.55 % w/w): 26.8%
- Mass loss, Mean ([4]; solution conc. 0.55 % w/w): 26.8%
- Corrected mass loss ([4]; solution conc. 0.55 % w/w): 32.3% and 27.5% and 25.6% and 21.8%
- Mass loss ([4]; solution conc. 0.55 % w/w): 32.3% and 27.5% and 25.6% and 21.8%
- Corrected mass loss, Mean ([4]; solution conc. 0.78 % w/w): 31.8%
- Mass loss, Mean ([4]; solution conc. 0.78 % w/w): 31.7%
- Corrected mass loss ([4]; solution conc. 0.78 % w/w): 26.0% and 25.1% and 31.3% and 44.7%
- Mass loss ([4]; solution conc. 0.78 % w/w): 25.9% and 25.0% and 31.2% and 44.6%
- Corrected mass loss, Mean ([4]; solution conc. 1.09 % w/w): 31.2%
- Mass loss, Mean ([4]; solution conc. 1.09 % w/w): 30.9%
- Corrected mass loss ([4]; solution conc. 1.09 % w/w): 30.5% and 29.8% and 29.4% and 34.9%
- Mass loss ([4]; solution conc. 1.09 % w/w): 30.2% and 29.5% and 29.2% and 34.6%
- Corrected mass loss, Mean ([4]; solution conc. 1.55 % w/w): 28.3%
- Mass loss, Mean ([4]; solution conc. 1.55 % w/w): 27.4%
- Corrected mass loss ([4]; solution conc. 1.55 % w/w): 28.6% and 26.8% and 27.3% and 30.3%
- Mass loss ([4]; solution conc. 1.55 % w/w): 27.8% and 25.9% and 26.4% and 29.5%
- Corrected mass loss, Mean ([4]; solution conc. 2.20 % w/w): 25.7%
- Mass loss, Mean ([4]; solution conc. 2.20 % w/w): 24.1%
- pH [5]: around 11.1

— patent publication US20250311722A1, “IMPROVED BIOCIDE” (Purgos ApS, priority 2022, published 2025)
